In US12202850B2, “Cyclobutyl purine derivative or salt thereof” (FUJIFILM Corporation, priority 2018, dated 2025):

What follows are compounds tested on adenovirus type 6 (ADV6) (assay: Evaluation of anti-adenovirus activity (CRL-11516 cells infected with ADV6, anti-hexon staining)). Settings: Human mastadenovirus C, 48 h, read-out: Anti-AdV activity EC50.
Format: cell-based

SMILES	EC50
COC(=O)[C@H](C)NP(=O)(OC[C@H]1C[C@@H](n2cnc3c(OC)nc(N)nc32)C1)Oc1ccc(Br)cc1 (stereo partly drawn) [Example 1-1, methyl (((cis-3-(2-amino-6-methoxy-9H-purin-9-yl)cyclobutyl)methoxy)(4-bromophenoxy)phosphoryl)-L-alaninate]	< 0.1 µM
COC(=O)[C@H](C)NP(=O)(OC[C@H]1C[C@@H](n2cnc3c(OC)nc(N)nc32)C1)Oc1cccc2ccccc12 (stereo partly drawn) [Example 1-2-1, methyl (((cis-3-(2-amino-6-methoxy-9H-purin-9-yl)cyclobutyl)methoxy)(naphthalen-1-yloxy)phosphoryl)-L-alaninate]	0.1 to 1 µM
COc1nc(N)nc2c1ncn2[C@H]1C[C@@H](COP(=O)(OCCSC(=O)C(C)(C)C)Oc2ccccc2)C1 (stereo partly drawn) [Example 3-1, S-(2-((((cis-3-(2-amino-6-methoxy-9H-purin-9-yl)cyclobutyl)methoxy)(phenoxy)phosphoryl)oxy)ethyl)2,2-dimethylpropanethioate]	1 to 10 µM
COc1nc(N)nc2c1ncn2[C@H]1C[C@@H](COP(=O)(N[C@@H](C)C(=O)OCc2ccccc2)Oc2ccccc2)C1 (stereo partly drawn) [Example 3-2-1, Benzyl (((cis-3-(2-amino-6-methoxy-9H-purin-9-yl)cyclobutyl)methoxy) (phenoxy)phosphoryl)-L-alaninate]	0.1 to 1 µM
COC(=O)[C@H](C)NP(=O)(OC[C@H]1C[C@@H](n2cnc3c(OC)nc(N)nc32)C1)Oc1ccccc1 (stereo partly drawn) [Example 3-2-2, Methyl (((cis-3-(2-amino-6-methoxy-9H-purin-9-yl)cyclobutyl)methoxy)(phenoxy)phosphoryl)-L-alaninate]	0.1 to 1 µM
COc1nc(N)nc2c1ncn2[C@H]1C[C@@H](COP(=O)(N[C@@H](C)C(=O)OC(C)C)Oc2ccccc2)C1 (stereo partly drawn) [Example 3-2-4, Isopropyl (((cis-3-(2-amino-6-methoxy-9H-purin-9-yl)cyclobutyl)methoxy) (phenoxy)phosphoryl)-L-alaninate]	1 to 10 µM
COC(=O)[C@H](C)NP(=O)(OC[C@H]1C[C@@H](n2cnc3c(OC)nc(N)nc32)C1)Oc1ccc(Cl)cc1 (stereo partly drawn) [Example 8-2-1, Methyl (((cis-3-(2-amino-6-methoxy-9H-purin-9-yl)cyclobutyl)methoxy)(4-chlorophenoxy)phosphoryl)-L-alaninate]	< 0.1 µM

Same assay, conditions: Human mastadenovirus C; CRL-11516 cells, ADV6 (50TCID50), 48 hours; 50% reduction of dark brown-stained cells; read-out: Anti-AdV activity EC50

EC50	SMILES
> 10 µM	Nc1nc2c(ncn2[C@H]2C[C@@H](CO)C2)c(=O)[nH]1 [Comparative Example 1, 2-Amino-9-(cis-3-(hydroxymethyl)cyclobutyl)-1,9-dihydro-6H-purin-6-one, reference compound]

Same assay, conditions: read-out: Anti-AdV activity EC50

SMILES	EC50
COC(=O)[C@H](C)NP(=O)(OC[C@H]1C[C@@H](n2cnc3c(OC)nc(N)nc32)C1)Oc1ccc(Cl)cc1 (stereo partly drawn) [Example 1-2-2, Methyl (((cis-3-(2-amino-6-methoxy-9H-purin-9-yl)cyclobutyl)methoxy)(4-chloro-phenoxy)phosphoryl)-L-alaninate]	< 0.1 µM
COC(=O)[C@H](C)NP(=O)(OC[C@H]1C[C@@H](n2cnc3c(OC)nc(N)nc32)C1)Oc1ccc(Cl)cc1 (stereo partly drawn) [Example 8-2-2, Methyl (((cis-3-(2-amino-6-methoxy-9H-purin-9-yl)cyclobutyl)methoxy)(4-chlorophenoxy)phosphoryl)-L-alaninate]	0.1 to 1 µM
